Measurements reported in patent US8394794B2, “Therapeutic compounds” (Regents of The University of Minnesota, priority 2007, dated 2013).
Where two headings read alike, the source gives them in different places.

What was measured:
Bcl-2 = target: T1, Bcl-2 (Homo sapiens, UniProt P10415); assay: Fluorescence polarization (FP) competition binding assay, Bcl-2; conditions: Table 1
T1 construct: made in house
Experimental: This was done by using the FP based competition binding assay (see below).
The binding interactions of the test compound with Bcl-2, Bcl-XL and Bcl-w proteins were evaluated using the respective recombinant proteins. […] The assays were conducted via an optimized protocol established in the laboratory using a GENios Pro plate reader (Tecan US, NC) with all assays performed in triplicate, each assay performed twice (see Doshi, J. M.; Tian, D.; Xing, C. J. Med. Chem. 2006, 49, 7731).

Bcl-XL = target: T2, Bcl-XL (Homo sapiens, UniProt Q07817); assay: Fluorescence polarization (FP) competition binding assay, Bcl-XL
T2 construct: made in house
Source text: (§1) With the stability improved, the mechanism of action of compound 1 was studied to determine whether compound 1 would retain the same mechanism of HA 14-1 as an antagonist against anti-apoptotic Bcl-2 proteins. Table 1 summarizes the binding interaction of compound 1 with three anti-apoptotic Bcl-2 proteins by following an established fluorescence polarization competition assay (see Doshi, J. M.; Tian, D.; Xing, C. J. Med. Chem. 2006, 49, 7731-7739).
(§2) To explore whether compound 3 functioned the same as HA 14-1 in inducing cell death, compound 3 was tested for its binding interactions with recombinant Bcl-2, Bcl-XL, and Bcl-w proteins. This was done by using the FP based competition binding assay (see below).
(§3) The binding interactions of the test compound with Bcl-2, Bcl-XL and Bcl-w proteins were evaluated using the respective recombinant proteins. The preparation of these recombinant Bcl-2 proteins and fluorescently labeled Bak peptide has been detailed previously (see Doshi, J. M.; Tian, D.; Xing, C. J. Med. Chem. 2006, 49, 7731). The assays were conducted via an optimized protocol established in the laboratory using a GENios Pro plate reader (Tecan US, NC) with all assays performed in triplicate, each assay performed twice (see Doshi, J. M.; Tian, D.; Xing, C. J. Med. Chem. 2006, 49, 7731).

Bcl-w = target: T3, Bcl-w (Homo sapiens, UniProt Q92843); assay: Fluorescence polarization (FP) competition binding assay, Bcl-w
T3 construct: made in house
T3 sequence (Q92843 1-193): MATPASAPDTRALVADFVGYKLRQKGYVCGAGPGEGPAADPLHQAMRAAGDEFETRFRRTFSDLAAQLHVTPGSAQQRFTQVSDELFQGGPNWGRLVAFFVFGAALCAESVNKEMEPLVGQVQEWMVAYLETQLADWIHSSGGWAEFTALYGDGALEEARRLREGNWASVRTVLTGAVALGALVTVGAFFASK
Source text: as §1, §2, §3

Jurkat cells [1] = assay: In vitro cytotoxicity assay (GI50) with fresh and incubated samples; type: cell-based; conditions: for increase of GI50 after incubation: 24-hour incubation in cell culture media at 37° C., FIG. 1; for loss of cytotoxicity after incubation: one hour incubation, FIG. 6
Experimental: Compound 1 (Example 2) was first evaluated for its stability under physiological conditions. In brief, compound 1 was incubated in cell culture media at 37° C. for 24 hours and the in vitro cytotoxicity was determined. HA 14-1 was run in parallel for comparison.
The stability of compound 3 (Example 1) was evaluated using the in vitro cytotoxicity assay described below.
The in vitro cytotoxicity of the test compound was assayed by determining the GI50s (the concentration of the compound required to inhibit cell growth by 50%). In brief, Jurkat cells at a density of 10^4 cells/well were plated in a 96-well plate. A series of 3-fold dilution of the test compound with 1% DMSO in the final cell media was used for the cell treatment (cells treated with media containing 1% DMSO served as a control). An identical set of the test compounds was incubated at 37° C. for the specified time and used along with freshly prepared samples for the cell-viability assay. After 24-hour treatment, the relative cell viability in each well was determined by using CellTiter-Blue Cell Viability Assay kit (a fluorescence assay that measures the reduction of a dye (resazurin) into a fluorescent end product (resorufin) by metabolically active cells—viable cells) (Promega, CA). The GI50 of each candidate was determined by fitting the relative viability of the cells to the drug concentration by using a dose-response model in GraphPad software.

Jurkat cells [2] = assay: Sensitization of Jurkat cells to doxorubicin (combination cytotoxicity); type: cell-based; conditions: for synergism with doxorubicin: combination vs each alone, FIG. 4
Experimental: Finally, compound 1 was analyzed for its capability in sensitizing tumor cells to standard chemotherapies. As HA 14-1 was established to sensitize various tumor cells to doxorubicin, compound 1 was tested in parallel with HA 14-1 for the potential synergism to doxorubicin in Jurkat cells. Briefly, the cytotoxicity of doxorubicin alone, compound 1 alone, or the combination of both to Jurkat cells were evaluated. […] This study established that compound 1 can function as a chemosensitizer in combination cancer therapy. The synergism of compound 1 was further supported by the dose-response potentiation of doxorubicin (FIG. 5).

[3] = HPLC analysis of decomposition in cell culture media; type: physicochemical; conditions: 48-hour incubation in cell culture media at 37° C.
[4] = tested on: Jurkat cells (normal, over-expressing Bcl-2, or over-expressing Bcl-XL); assay: In vitro cytotoxicity against three Jurkat cell lines (drug resistance); type: cell-based; conditions: Jurkat normal vs Bcl-2 or Bcl-XL over-expressing; FIG. 3, FIG. 7
Experimental: Compound 1 was further studied for its capability to overcome drug resistance induced by the over-expression of anti-apoptotic Bcl-2 proteins. Specifically, the in vitro cytotoxicity of compound 1 against three Jurkat cells (normal, over-expressing Bcl-2, or over-expressing Bcl-XL) were evaluated.
The ability of compound 3 to overcome the drug resistance induced by the over-expression of anti-apoptotic Bcl-2 proteins by evaluating its cytotoxicity in Bcl-2 or Bcl-XL over-expressing Jurkat cells was also evaluated.
The in vitro cytotoxicity of the test compound was assayed by determining the GI50s (the concentration of the compound required to inhibit cell growth by 50%). In brief, Jurkat cells at a density of 10^4 cells/well were plated in a 96-well plate. A series of 3-fold dilution of the test compound with 1% DMSO in the final cell media was used for the cell treatment (cells treated with media containing 1% DMSO served as a control). An identical set of the test compounds was incubated at 37° C. for the specified time and used along with freshly prepared samples for the cell-viability assay. […]

caspase-3/-7 = assay: Concentration-dependent activation of caspase-3/-7 / mode of cell death; type: cell-based; conditions: 24 hours treatment; FIG. 2
Experimental: Compound 1 was further analyzed for its mechanism to inhibit cell growth as HA 14-1 does. This was characterized for concentration-dependent activation of caspase-3/-7. HA 14-1 was run in parallel for comparison. […] Mechanistically, however, compound 1 induced cell death through two different pathways depending on its concentration, similar to HA 14-1. Between 50-100 μM, compound 1 induces apoptosis as characterized by caspase-3/-7 activation. On the other hand, at >100 μM, compound 1 induced non-apoptotic cell death (no activation of caspase-3/-7). The induction of cell death through apoptosis and non-apoptotic process was further supported by DNA fragmentation studies.

[5] = Half-life under varying pH conditions; type: physicochemical; conditions: buffer
[6] = tested on: Jurkat cells (normal, over-expressing Bcl-2, or over-expressing Bcl-XL); conditions: Jurkat over-expressing Bcl-2 or Bcl-XL; from Doshi et al. J. Med. Chem. 2006; cited from earlier work
[7] = Table 3, mean of two independent experiments with triplicate in each, read-out: Ki ± SEM Bcl-w

T2 sequence (Q07817 whole entry, species assumed): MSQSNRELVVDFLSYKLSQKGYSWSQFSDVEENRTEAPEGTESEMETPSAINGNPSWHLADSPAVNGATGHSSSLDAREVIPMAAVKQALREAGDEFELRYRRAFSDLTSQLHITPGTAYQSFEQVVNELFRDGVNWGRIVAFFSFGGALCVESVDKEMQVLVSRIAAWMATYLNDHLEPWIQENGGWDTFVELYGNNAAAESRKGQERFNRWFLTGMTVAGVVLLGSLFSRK
T1 sequence (P10415 whole entry, species assumed): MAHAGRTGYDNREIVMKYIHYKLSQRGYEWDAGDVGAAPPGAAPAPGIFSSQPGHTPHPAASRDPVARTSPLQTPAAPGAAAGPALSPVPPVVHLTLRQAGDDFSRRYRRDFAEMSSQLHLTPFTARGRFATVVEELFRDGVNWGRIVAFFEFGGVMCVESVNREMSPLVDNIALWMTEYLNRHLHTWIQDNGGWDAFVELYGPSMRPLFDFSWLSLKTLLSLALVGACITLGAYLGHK

Ki (Bcl-2)	Ki (Bcl-XL; Table 1, read-out: Ki Bcl-XL)	Ki (Bcl-w; Table 1, read-out: Ki Bcl-w)	decomposition by HPLC [3]	Ki (Bcl-XL; Table 3, mean of two independent experiments with triplicate in each, read-out: Ki ± SEM Bcl-XL)	half-life ([5]; pH 6.0)	Ki (Bcl-w; [7])	half-life ([5]; pH 7.0)	half-life ([5]; pH 8.0)	Structure (SMILES)	increase of GI50 after incubation (Jurkat cells [1])	cytotoxicity (inhibition of cell growth) compared with HA 14-1 (Jurkat cells [1]; 24 hours treatment, FIG. 2)	potentiation of doxorubicin (Jurkat cells [2]; 30 μM compound, FIG. 5)	synergism with doxorubicin (Jurkat cells [2])	resistance induced by over-expression of Bcl-2 or Bcl-XL [4]	concentration inducing apoptosis (caspase-3/-7 activation) (caspase-3/-7)	concentration inducing non-apoptotic cell death (no activation of caspase-3/-7) (caspase-3/-7)	loss of cytotoxicity after incubation (Jurkat cells [1])	resistance induced by over-expression of Bcl-2 or Bcl-XL [6]
858 µM	390 µM	686 µM	no decomposition was detected						CCOC(=O)CC1C(C(=O)OCC)=C(N)Oc2ccc(Br)cc21 (stereo not drawn) [Compound 1, Ethyl-2-amino-6-bromo-4-(2-ethoxy-2-oxoethyl)-4H-chromene-3-carboxylate]	1.2 fold	less cytotoxic than HA 14-1	1.4 fold	able to synergize doxorubicin	induced no resistance	50 to 100 µM	> 100 µM		
				55.4 ± 0.88 µM	2.75 h	49.4 ± 1.76 µM			CCOC(=O)C1=C(N)Oc2ccc(Br)cc2C1C(C)(C#N)C(=O)OCC (stereo not drawn) [Compound 3, Ethyl-2-amino-6-bromo-4-(2-cyano-1-ethoxy-1-oxopropan-2-yl)-4H-chromene-3-carboxylate]					unable to induce any noticeable resistance			2.5 fold	
169 ± 18.9 µM	58.9 ± 5.3 µM	59.3 ± 5.3 µM			2.09 h	59.3 ± 5.32 µM	1.86 h	1.22 h	CCOC(=O)C1=C(N)Oc2ccc(Br)cc2C1C(C#N)C(=O)OCC (stereo not drawn) [HA 14-1, reference compound]	~35 fold			able to synergize doxorubicin				10 fold	show no resistance
